Experimental data reported in PMC11859928, “Design, Synthesis, and Antiproliferative Activity of Novel Indole/1,2,4-Triazole Hybrids as Tubulin Polymerization Inhibitors” (Pharmaceuticals, 2025).

Tests used:
Assay in all cases: NCI one-dose assay
Format in all cases: cell-based
NCI-H226 = conditions: Homo sapiens, NCI-H226, Non-small cell lung cancer, read-out: Cell growth inhibition %
PC-3 = conditions: Homo sapiens, PC-3, Prostate cancer, read-out: Cell growth inhibition %
CAKI-1 = conditions: Homo sapiens, CAKI-1, Renal cancer, read-out: Cell growth inhibition %
MCF7 = conditions: Homo sapiens, MCF7, Breast cancer, read-out: Cell growth inhibition %
HCT-15 = conditions: Homo sapiens, HCT-15, Colon cancer, read-out: Cell growth inhibition %
MDA-MB-468 = conditions: Homo sapiens, MDA-MB-468, Breast cancer, read-out: Cell growth inhibition %
NCI-H322M = conditions: Homo sapiens, Non-small cell lung cancer, read-out: Cell growth inhibition %
MOLT-4 = conditions: Homo sapiens, MOLT-4, Leukemia, read-out: Cell growth inhibition %
KM12 = conditions: Homo sapiens, KM12, Colon cancer, read-out: Cell growth inhibition %
HCT-116 = conditions: Homo sapiens, HCT-116, Colon cancer, read-out: Cell growth inhibition %
HOP-62 = conditions: Homo sapiens, HOP-62, Non-small cell lung cancer, read-out: Cell growth inhibition %
RPMI-8226 = conditions: Homo sapiens, RPMI-8226, Leukemia, read-out: Cell growth inhibition %
SK-MEL-2 = conditions: Homo sapiens, SK-MEL-2, Melanoma, read-out: Cell growth inhibition %
MDA-MB-435 = conditions: Homo sapiens, MDA-MB-435, Melanoma, read-out: Cell growth inhibition %
CCRF-CEM = conditions: Homo sapiens, Leukemia, read-out: Cell growth inhibition %
UACC-62 = conditions: Homo sapiens, UACC-62, Melanoma, read-out: Cell growth inhibition %
SNB-75 = conditions: Homo sapiens, SNB-75, CNS cancer, read-out: Cell growth inhibition %
COLO 205 = conditions: Homo sapiens, COLO 205, Colon cancer, read-out: Cell growth inhibition %
BT-549 = conditions: Homo sapiens, BT-549, Breast cancer, read-out: Cell growth inhibition %
ACHN = conditions: Homo sapiens, Renal cancer, read-out: Cell growth inhibition %
RXF 393 = conditions: Homo sapiens, RXF 393, Renal cancer, read-out: Cell growth inhibition %
SF-295 = conditions: Homo sapiens, SF-295, CNS cancer, read-out: Cell growth inhibition %

Compound | inhibition at 10 µM (NCI-H226) [%] | inhibition at 10 µM (PC-3) [%] | inhibition at 10 µM (CAKI-1) [%] | inhibition at 10 µM (MCF7) [%] | inhibition at 10 µM (HCT-15) [%] | inhibition at 10 µM (MDA-MB-468) [%] | inhibition at 10 µM (NCI-H322M) [%] | inhibition at 10 µM (MOLT-4) [%] | inhibition at 10 µM (KM12) [%] | inhibition at 10 µM (HCT-116) [%] | inhibition at 10 µM (HOP-62) [%] | inhibition at 10 µM (RPMI-8226) [%] | inhibition at 10 µM (SK-MEL-2) [%] | inhibition at 10 µM (MDA-MB-435) [%] | inhibition at 10 µM (CCRF-CEM) [%] | inhibition at 10 µM (UACC-62) [%] | inhibition at 10 µM (SNB-75) [%] | inhibition at 10 µM (COLO 205) [%] | inhibition at 10 µM (BT-549) [%] | inhibition at 10 µM (ACHN) [%] | other results
C=CCn1c(SCC(=O)c2ccccc2)nnc1-c1c[nH]c2ccccc12 [Compound 6a, 2-((4-Allyl-5-(1H-indol-3-yl)-4H-1,2,4-triazol-3-yl)thio)-1-phenylethanone] | 12.2 | 10.9 | 16.9 | 2.77 | 4 | 12.3 | -1.89 | 7.17 | -11.8 | 2.55 | 7.46 | 13.4 | -4.98 | -5.02 | 8.76 | 18.5 | 3.62 | -22.1 | -9.39 | 6.19 | inhibition at 10 µM (RXF 393): -2.2%; inhibition at 10 µM (SF-295): 3.79%
C=CCn1c(SCC(=O)c2ccc(C)cc2)nnc1-c1c[nH]c2ccccc12 [Compound 6c, 2-((4-allyl-5-(1H-indol-3-yl)-4H-1,2,4-triazol-3-yl)thio)-1-(p-tolyl)ethanone] | 17.1 | 22.2 | 15.1 | 9.88 | 6.36 | 12.5 | 0.83 | 9.13 | -6.02 | 9.79 | 9.23 | 13.8 | 1.54 | -2.15 | 9.66 | 24.7 | -4.77 | -25.9 | 2.35 | 11 | inhibition at 10 µM (RXF 393): -0.07%; inhibition at 10 µM (SF-295): 3.28%
C=CCn1c(SC/C(=N\O)c2ccc(C)cc2)nnc1-c1c[nH]c2ccccc12 [Compound 7c, (Z)-2-((4-allyl-5-(1H-indol-3-yl)-4H-1,2,4-triazol-3-yl)thio)-1-(p-tolyl)ethanone Oxime] | 23.1 | 7.62 | 20.2 | 11.9 | 11.3 | 27.1 | 5.67 | 20.4 | 0.27 | 22.3 | 8.72 | 8.76 | 1.01 | -2.07 | 2.91 | 30.9 | 2.58 | -6.48 | -7.22 | 11.4 | inhibition at 10 µM (RXF 393): -5.46%; inhibition at 10 µM (SF-295): 15.1%
